Ten molecules from patent US20240124483A1, “Methods for the Treatment of Fibrotic Disease” (SHY Therapeutics, LLC, priority 2021, published 2024) can be followed below.

The test system of one experiment is ERK1/2 phosphorylation. Nature of the experiment: Western ERK1/2 Cell-Based Phosphorylation Assay. Conditions: Homo sapiens, PANC-1, 6 hours, EGF 1.5 ng/ml, read-out: % inh of ERK1/2 phosphorylation in PANC-1. The protocol: Cell lines: Human tumor-derived pancreatic cancer cell line Panc-1 was purchased from American Type Culture Collection and grown in complete DMEM-High Glucose, supplemented with penicillin (100 U/mL), streptomycin (100 μg/mL), and 10% heat-inactivated FBS at 37° C. in a humidified incubator with 5% CO2.
(§1) Method: Cells were plated at 350000 cells/well density in a 12-well plate, allowed 3 hours to adhere to the plate, then starved in the appropriate medium in the presence of 0.5% FBS overnight. The small molecules to be tested were added to the cells in the final concentration of 10 μM in the presence of 0.3% DMSO for 6 hours incubation at 37° C. For IC50 value determination, serial dilutions of compounds were added to cells under the same conditions. Next, cells were stimulated with 1.5 ng/ml EGF for 15 minutes then cells were lysed with lysis buffer containing 1% Triton X-100, EDTA, and Halt™ Protease & Phosphatase Inhibitor Cocktail (Thermo Scientific). Protein concentration was assessed by BCA protein assay (Thermo Scientific). Phosphorylation level of ERK1/2 was determined by western blot.
(§2) Western blot protocol: Equal amounts of protein (15-50 μg) were separated by SDS-PAGE and transferred to nitrocellulose membranes (Invitrogen by Thermo Fisher Scientific). The membrane was stained with Ponceau S Stain (Boston BioProducts) to verify uniform protein loading. Membranes were blocked with 10% milk and phosphorylation levels of ERK1/2 were assessed by incubating overnight at 4° C. with anti-phospho-p44/42 (Thr202/Tyr204) antibody (Cell Signaling) followed by HRP-conjugated secondary antibody (Jackson Immunoresearch, West Grove, PA). Bands were incubated in Amersham ECL Prime Western Blotting Detection Reagent (GE Healthcare) and visualized using the ChemiDoc MP imaging system (Bio-Rad).

For a further experiment, the system named is AKT phosphorylation. The experiment is described as follows: Western AKT Cell-Based Phosphorylation Assay. Conditions: Homo sapiens, PANC-1, 6 hours, EGF 1.5 ng/ml, read-out: % inh of AKT phosphorylation in PANC-1. The protocol: Human tumor-derived pancreatic cancer cell line Panc-1 was purchased from American Type Culture Collection and grown in complete DMEM-High Glucose supplemented with penicillin (100 U/mL), streptomycin (100 μg/mL), and 10% heat-inactivated FBS at 37° C. in a humidified incubator with 5% CO2.
as §1, with “C.” for “C. For IC50 value determination, serial dilutions of compounds were added to cells under the same conditions.”, “Akt” for “ERK1/2”
as §2, with “Akt” for “ERK1/2”, “anti-phospho-Akt (Ser473)” for “anti-phospho-p44/42 (Thr202/Tyr204)”

Molecules are shown by their SMILES.

In the case of `CO[C@H]1CNC[C@@H](Nc2nc(-c3nccn3C)nc3sc(-c4ccn(C(C)C)n4)cc23)C1` [Compound 28, 6-(1-Isopropyl-1H-pyrazol-3-yl)-N-((3S,5R)-5-methoxypiperidin-3-yl)-2-(1-methyl-1H-imidazol-2-yl)thieno[2,3-d]pyrimidin-4-amine], the figures for the inhibition at 10 µM in the experiment on ERK1/2 phosphorylation and in the experiment on AKT phosphorylation were 46 to 75% and 26 to 45%, respectively.
The corresponding values for `CO[C@H]1C[C@H](CNc2nc(-c3nccn3C)nc3sc(-c4ccn(C(C)C)n4)c(C)c23)C1` [Compound 16, 6-(1-Isopropyl-1H-pyrazol-3-yl)-N-(((1r,3r)-3-methoxycyclobutyl)methyl)-5-methyl-2-(1-methyl-1H-imidazol-2-yl)thieno[2,3-d]pyrimidin-4-amine] are 76 to 100% and 0%.
In the case of `COCCn1c(-c2nccn2C)nc2sc(-c3ccn(C(C)C)n3)c(C)c2c1=O` [Compound 29, 6-(1-Isopropyl-1H-pyrazol-3-yl)-3-(2-methoxyethyl)-5-methyl-2-(1-methyl-1H-imidazol-2-yl)thieno[2,3-d]pyrimidin-4(3H)-one], the inhibition at 10 µM in the experiment with ERK1/2 phosphorylation and in the experiment on AKT phosphorylation was 0% each time.
Consider `Cc1c(-c2ccn(C(C)C)n2)sc2nc(-c3nccn3C)nc(NCC3COCCN3C)c12` (racemic) [Compound 24, rac-6-(1-Isopropyl-1H-pyrazol-3-yl)-5-methyl-2-(1-methyl-1H-imidazol-2-yl)-N-((4-methylmorpholin-3-yl)methyl)thieno[2,3-d]pyrimidin-4-amine], for which the inhibition at 10 µM in the experiment with ERK1/2 phosphorylation and in the experiment on AKT phosphorylation was 0% throughout.
With `COCCCCOc1nc(-c2nccn2C)nc2sc(-c3ccn(C(C)C)n3)c(C)c12` [Compound 34, 6-(1-Isopropyl-1H-pyrazol-3-yl)-4-(4-methoxybutoxy)-5-methyl-2-(1-methyl-1H-imidazol-2-yl)thieno[2,3-d]pyrimidine], the inhibition at 10 µM in the experiment on ERK1/2 phosphorylation and with AKT phosphorylation was 0% each time.
For the molecule `COCC1CN(c2nc(-c3nccn3C)nc3sc(-c4ccn(C(C)C)n4)c(C)c23)CCO1` (racemic) [Compound 15, 4-(6-(1-Isopropyl-1H-pyrazol-3-yl)-5-methyl-2-(1-methyl-1H-imidazol-2-yl)thieno[2,3-d]pyrimidin-4-yl)-2-(methoxymethyl)morpholine], the inhibition at 10 µM in the experiment on ERK1/2 phosphorylation lay within 46 to 75%; in the experiment on AKT phosphorylation it was 76 to 100%.
The corresponding values for `Cc1c(-c2ccn(C(C)C)n2)sc2nc(-c3nccn3C)nc(NCCN3CCS(=O)(=O)CC3)c12` [Compound 23, 4-(2-((6-(1-Isopropyl-1H-pyrazol-3-yl)-5-methyl-2-(1-methyl-1H-imidazol-2-yl)thieno[2,3-d]pyrimidin-4-yl)amino)ethyl)thiomorpholine 1,1-dioxide] are 0% and 0%.
Take `COc1cccc(Nc2nc(-c3nccn3C)nc3sc(-c4ccn(C(C)C)n4)c(C)c23)n1` [Compound 18, 6-(1-Isopropyl-1H-pyrazol-3-yl)-N-(6-methoxypyridin-2-yl)-5-methyl-2-(1-methyl-1H-imidazol-2-yl)thieno[2,3-d]pyrimidin-4-amine]: the inhibition at 10 µM was 0% in the experiment on ERK1/2 phosphorylation and 26 to 45% in the experiment with AKT phosphorylation.
Take `COCCO[C@H]1CC[C@@H](Nc2nc(-c3nccn3C)nc3sc(-c4ccn(C(C)C)n4)c(C)c23)C1` (racemic) [Compound 20, rac-6-(1-Isopropyl-1H-pyrazol-3-yl)-N-((1R,3S)-3-(2-methoxyethoxy)cyclopentyl)-5-methyl-2-(1-methyl-1H-imidazol-2-yl)thieno[2,3-d]pyrimidin-4-amine]: the results for the inhibition at 10 µM in the experiment on ERK1/2 phosphorylation and with AKT phosphorylation were 46 to 75% and 26 to 45%, respectively.
The matching figures for `COCCn1ccc(-c2sc3nc(-c4nccn4C)nc(NC[C@H]4CC[C@H]4COC)c3c2C)n1` (racemic) [Compound 38, rac-6-(1-(2-Methoxyethyl)-1H-pyrazol-3-yl)-N-(((1S,2R)-2-(methoxymethyl)cyclobutyl)methyl)-5-methyl-2-(1-methyl-1H-imidazol-2-yl)thieno[2,3-d]pyrimidin-4-amine]: 46 to 75% and 0%.
